# Source: US20220265817A1, “THERAPEUTIC COMPOSITIONS AND METHODS FOR TREATING HEPATITIS B” (priority 2017, published 2022)
# Several values for one entry are separate records, joined by “and”; a condition that tells them apart may be missing. Identical values can stand only once. Like-named read-outs stand apart in the source and are kept apart here.
# How the values were obtained:
# [1] = tested on: HBV rcDNA in HepDE19 cells; assay: HepDE19 cell culture system, rcDNA quantitation using bDNA assay, MacSynergy II; format: cell-based, human hepatoma cell line; settings: for AVERAGE % INHIBITION: GLS-4 0 μM
# [2] = tested on: D type HBV in primary human hepatocytes; assay: microbe, parasite or virus in culture; format: cell-based
# Method in brief: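 Percoll-purified hepatocytes infected with genotype D HBV on day 1, then treated from day 2 with compound refreshed every other day; supernatant HBV DNA quantified by qPCR on day 8. Single agents run at 7 concentrations, 3-fold dilutions, triplicate; combinations in 5×5 matrix, analysed with MacSynergy.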
# [3] = tested on: D type HBV in primary human hepatocytes (HBsAg); assay: microbe, parasite or virus in culture; format: cell-based
# Method in brief: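 PHHs isolated by liver perfusion and Percoll, infected with genotype D HBV on day 1; compounds added day 2 and refreshed every other day. Supernatant HBsAg on day 8 by ELISA, % inhibition vs DMSO control. Seven 3-fold concentrations in triplicate; combinations as 5×5 matrix.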
# [4] = Hepatitis B virus, HepDE19, read-out: ADDITIVE INHIBITION
# [5] = Hepatitis B virus, HepDE19, read-out: AVERAGE % INHIBITION (rcDNA)
# [6] = 3 replicates, Compound 24 0.00 nM, TDF nM: 10.00, 3.33, 1.11, 0.37, 0.12
compound,measurement,setting,value
CC[C@@H](C)NS(=O)(=O)c1ccc(F)c(C(=O)Nc2ccc(F)c(F)c2)c1 [Compound 3],AVERAGE % INHIBITION,[1]; COMPOUND 3 0.040 μM,11.14%
same,AVERAGE % INHIBITION,[1]; COMPOUND 3 0.110 μM,19.99%
same,AVERAGE % INHIBITION,[1]; COMPOUND 3 0.330 μM,56.68%
same,AVERAGE % INHIBITION,[1]; COMPOUND 3 1.000 μM,86.87%
same,AVERAGE % INHIBITION,[1]; COMPOUND 3 3.000 μM,94.49%
same,EC50,"[1]; Hepatitis B virus, HepDE19, rcDNA, bDNA assay, DE19 cells, read-out: Inhibitor A EC50",272 nM
same,EC50,"[1]; Hepatitis B virus, HepDE19, rcDNA by bDNA assay, single agent, read-out: INHIBITOR A EC50",454 nM
same,EC50,"[2]; Hepatitis B virus, Hepatocyte, 456 h, HBV DNA endpoint, PHH, determined in an earlier separate experiment (Table 19d), read-out: Inhibitor B EC50",876 nM
same,EC50,"[2]; Hepatitis B virus, Hepatocyte, 576 h, PHH, determined in an earlier separate experiment (Table 24d), read-out: Inhibitor B EC50 HBV DNA",876 nM
same,inhibition at 0.06173 µM,"[2]; Hepatitis B virus, Hepatocyte, read-out: AVERAGE % […] DNA, COMPOUND 3 61.73 nM alone (Table 19a)",-28.1%
same,inhibition at 0.06864 µM,"[2]; Hepatitis B virus, Hepatocyte, read-out: AVERAGE % […] DNA, COMPOUND 3 68.64 nM alone (Table 20a)",-2.79%
same,inhibition at 0.18519 µM,"[2]; Hepatitis B virus, Hepatocyte, read-out: AVERAGE % […] DNA, COMPOUND 3 185.19 nM alone (Table 19a), read-out: AVERAGE % INHIBITION HBV DNA",-25.9%
same,inhibition at 0.20593 µM,"[2]; Hepatitis B virus, Hepatocyte, read-out: AVERAGE % […] DNA, COMPOUND 3 205.93 nM alone (Table 20a)",-5.02%
same,inhibition at 0.55556 µM,"[2]; Hepatitis B virus, Hepatocyte, read-out: AVERAGE % […] DNA, COMPOUND 3 555.56 nM alone (Table 19a), read-out: AVERAGE % INHIBITION HBV DNA",-3.32%
same,inhibition at 0.61778 µM,"[2]; Hepatitis B virus, Hepatocyte, read-out: AVERAGE % […] DNA, COMPOUND 3 617.78 nM alone (Table 20a)",34.8%
same,inhibition at 1.66667 µM,"[2]; Hepatitis B virus, Hepatocyte, read-out: AVERAGE % […] DNA, COMPOUND 3 1666.67 nM alone (Table 19a)",25.9%
same,inhibition at 1.85333 µM,"[2]; Hepatitis B virus, Hepatocyte, read-out: AVERAGE % […] DNA, COMPOUND 3 1853.33 nM alone (Table 20a)",66.4%
same,inhibition at 5 µM,"[2]; Hepatitis B virus, Hepatocyte, read-out: AVERAGE % […] DNA, COMPOUND 3 5000.00 nM alone (Table 19a), read-out: AVERAGE % INHIBITION HBV DNA",74.8%
same,inhibition at 5.56 µM,"[2]; Hepatitis B virus, Hepatocyte, read-out: AVERAGE % […] DNA, COMPOUND 3 5560.00 nM alone (Table 20a)",85.3%
same,inhibition at 61.73 µM,"[2]; Hepatitis B virus, Hepatocyte, read-out: AVERAGE % […] DNA, COMPOUND 3 61.73 μM alone",-11.7%
same,inhibition at 185.19 µM,"[2]; Hepatitis B virus, Hepatocyte, read-out: AVERAGE % […] DNA, COMPOUND 3 185.19 μM alone",4.14%
same,inhibition at 555.56 µM,"[2]; Hepatitis B virus, Hepatocyte, read-out: AVERAGE % […] DNA, COMPOUND 3 555.56 μM alone",26.5%
same,inhibition at 1666.67 µM,"[2]; Hepatitis B virus, Hepatocyte, read-out: AVERAGE % […] DNA, COMPOUND 3 1666.67 μM alone",69.4%
same,inhibition at 5000 µM,"[2]; Hepatitis B virus, Hepatocyte, read-out: AVERAGE % […] DNA, COMPOUND 3 5000.00 μM alone",84.3%
same,EC50,"[2]; Hepatitis B virus, Hepatocyte, HBV DNA, determined in an earlier separate experiment, read-out: Inhibitor EC50",876 nM
same,EC50,"[3]; Hepatitis B virus, Hepatocyte, 456 h, read-out: Inhibitor B EC50",7790 nM
same,EC50,"[3]; Hepatitis B virus, Hepatocyte, 576 h, read-out: Inhibitor B EC50 HBsAg",7790 nM
same,inhibition at 0.06173 µM,"[3]; Hepatitis B virus, Hepatocyte, read-out: AVERAGE % INHIBITION HBsAg, COMPOUND 3 61.73 nM alone (Table 19b)",-20%
same,inhibition at 0.06864 µM,"[3]; Hepatitis B virus, Hepatocyte, read-out: AVERAGE % INHIBITION HBsAg, COMPOUND 3 68.64 nM alone (Table 20b)",-16.4%
same,inhibition at 0.18519 µM,"[3]; Hepatitis B virus, Hepatocyte, read-out: AVERAGE % INHIBITION HBsAg, COMPOUND 3 185.19 nM alone (Table 19b)",-17.3%
same,inhibition at 0.20593 µM,"[3]; Hepatitis B virus, Hepatocyte, read-out: AVERAGE % INHIBITION HBsAg, COMPOUND 3 205.93 nM alone (Table 20b)",-21.6%
same,inhibition at 0.55556 µM,"[3]; Hepatitis B virus, Hepatocyte, read-out: AVERAGE % INHIBITION HBsAg, COMPOUND 3 555.56 nM alone (Table 19b)",-14%
same,inhibition at 0.61778 µM,"[3]; Hepatitis B virus, Hepatocyte, read-out: AVERAGE % INHIBITION HBsAg, COMPOUND 3 617.78 nM alone (Table 20b)",-5.12%
same,inhibition at 1.66667 µM,"[3]; Hepatitis B virus, Hepatocyte, read-out: AVERAGE % INHIBITION HBsAg, COMPOUND 3 1666.67 nM alone (Table 19b)",1.44%
same,inhibition at 1.85333 µM,"[3]; Hepatitis B virus, Hepatocyte, read-out: AVERAGE % INHIBITION HBsAg, COMPOUND 3 1853.33 nM alone (Table 20b)",14.6%
same,inhibition at 5 µM,"[3]; Hepatitis B virus, Hepatocyte, read-out: AVERAGE % INHIBITION HBsAg, COMPOUND 3 5000.00 nM alone (Table 19b)",28.2%
same,inhibition at 5.56 µM,"[3]; Hepatitis B virus, Hepatocyte, read-out: AVERAGE % INHIBITION HBsAg, COMPOUND 3 5560.00 nM alone (Table 20b)",43.8%
same,inhibition at 61.73 µM,"[3]; Hepatitis B virus, Hepatocyte, read-out: AVERAGE % INHIBITION HBsAg, COMPOUND 3 61.73 μM alone",-5.49%
same,inhibition at 185.19 µM,"[3]; Hepatitis B virus, Hepatocyte, read-out: AVERAGE % INHIBITION HBsAg, COMPOUND 3 185.19 μM alone",-1.46%
same,inhibition at 555.56 µM,"[3]; Hepatitis B virus, Hepatocyte, read-out: AVERAGE % INHIBITION HBsAg, COMPOUND 3 555.56 μM alone",4.63%
same,EC50,"[3]; Hepatitis B virus, Hepatocyte, read-out: Inhibitor EC50",7790 nM
"CC(C)OC(=O)OCOP(=O)(CO[C@H](C)Cn1cnc2c(N)ncnc21)OCOC(=O)OC(C)C.O=C(O)/C=C/C(=O)O [TDF, tenofovir disoproxil fumarate, reference compound]",SYNERGY PLOT (99.9%) […]. 96%,[1],0
same,inhibition at 0.004 µM,"[1]; Hepatitis B virus, HepDE19",-5.27%
same,inhibition at 0.008 µM,"[1]; Hepatitis B virus, HepDE19",0.67%
same,inhibition at 0.016 µM,"[1]; Hepatitis B virus, HepDE19",2.82%
same,inhibition at 0.031 µM,"[1]; Hepatitis B virus, HepDE19",6.57%
same,inhibition at 0.063 µM,"[1]; Hepatitis B virus, HepDE19",41.7%
same,inhibition at 0.003906 µM,[1]; [4],-5.27%
same,inhibition at 0.00781 µM,[1]; [4],0.67%
same,inhibition at 0.01563 µM,[1]; [4],2.82%
same,inhibition at 0.03125 µM,[1]; [4],6.57%
same,inhibition at 0.0625 µM,[1]; [4],41.7%
same,inhibition at 0.125 µM,[1]; [4],66.1%
same,inhibition at 0.25 µM,[1]; [4],81.5%
same,inhibition at 0.5 µM,[1]; [4],90.8%
same,inhibition at 1 µM,[1]; [4],94.5%
same,inhibition at 0.125 µM,[1]; [5],66.1%
same,inhibition at 0.25 µM,[1]; [5],81.5%
same,inhibition at 0.5 µM,[1]; [5],90.8%
same,inhibition at 1 µM,[1]; [5],94.5%
same,EC50,"[1]; Hepatitis B virus, HepDE19, read-out: Inhibitor B EC50",89 nM
same,EC50,"[1]; Hepatitis B virus, HepDE19, rcDNA by bDNA assay, single agent, read-out: INHIBITOR B EC50",88 nM
same,AVERAGE % INHIBITION HBV DNA,[2]; [6],−6.24% and −1.16% and −15.4% and 3.15%
same,AVERAGE % INHIBITION (HBsAg),[3]; [6],−3.32% and −3.31% and −6.65% and −1.28% and −3.54%
same,inhibition at 0.00012 µM,"[3]; Hepatitis B virus, Hepatocyte, TDF 0.12 nM alone, read-out: AVERAGE % INHIBITION HBsAg",3.39%
same,inhibition at 0.00037 µM,"[3]; Hepatitis B virus, Hepatocyte, TDF 0.37 nM alone, read-out: AVERAGE % INHIBITION HBsAg",-0.3%
same,inhibition at 0.00333 µM,"[3]; Hepatitis B virus, Hepatocyte, read-out: AVERAGE % INHIBITION HBsAg, TDF 3.33 nM alone",-0.9%
same,inhibition at 0.01 µM,"[3]; Hepatitis B virus, Hepatocyte, read-out: AVERAGE % INHIBITION HBsAg, TDF 10.00 nM alone",-5.9%
same,EC50,"[3]; Hepatitis B virus, Hepatocyte, read-out: Inhibitor A EC50",> 100 nM
same,ADDITIVE INHIBITION (HBsAg),"[3]; expected from additive interaction, Compound 24 0.00 nM, TDF nM by row: r27 10.00, r28 3.33, r29 1.11, r30 0.37, r31 0.12",−6.65% and −1.28% and −3.54% and −3.32% and −3.31%
